Measured values as given in article PMC5831858, “Pharmacological characterisation of CR6086, a potent prostaglandin E2 receptor 4 antagonist, as a new potential disease-modifying anti-rheumatic drug” (Arthritis Research & Therapy, 2018).
Read-outs that look alike come from different tables or passages of the source.

What was measured:
SKCa channel = assay: Ion channel SKCa binding; conditions: [^125I]apamin, Rat cerebral cortex
5-HT2A = 5-HT2A (Homo sapiens, UniProt P28223); assay: Serotonin receptor 5-HT2A binding; conditions: [^3H]ketanserin, Human recombinant HEK-293 cells, read-out: CR6086 Activity at 10µM
Chain of 5-HT2A (P28223 whole entry): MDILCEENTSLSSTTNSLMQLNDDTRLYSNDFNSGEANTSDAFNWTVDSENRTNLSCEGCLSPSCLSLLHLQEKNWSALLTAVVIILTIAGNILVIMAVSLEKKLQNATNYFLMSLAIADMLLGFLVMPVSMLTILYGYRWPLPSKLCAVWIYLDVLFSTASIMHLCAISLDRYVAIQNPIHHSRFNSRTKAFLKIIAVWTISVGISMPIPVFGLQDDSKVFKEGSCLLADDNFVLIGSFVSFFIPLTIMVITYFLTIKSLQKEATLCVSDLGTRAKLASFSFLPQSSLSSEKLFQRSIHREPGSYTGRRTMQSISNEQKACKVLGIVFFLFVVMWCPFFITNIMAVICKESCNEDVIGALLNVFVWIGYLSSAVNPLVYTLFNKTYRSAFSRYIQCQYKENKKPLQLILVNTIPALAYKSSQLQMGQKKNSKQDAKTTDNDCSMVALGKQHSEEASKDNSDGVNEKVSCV

VPAC1 (VIP1) = VPAC1 (VIP1) (Homo sapiens, UniProt P32241); assay: VPAC1 receptor binding; conditions: [^125I]VIP, Human recombinant CHO cells, read-out: CR6086 Activity at 10µM
Chain of VPAC1 (VIP1) (P32241 31-457): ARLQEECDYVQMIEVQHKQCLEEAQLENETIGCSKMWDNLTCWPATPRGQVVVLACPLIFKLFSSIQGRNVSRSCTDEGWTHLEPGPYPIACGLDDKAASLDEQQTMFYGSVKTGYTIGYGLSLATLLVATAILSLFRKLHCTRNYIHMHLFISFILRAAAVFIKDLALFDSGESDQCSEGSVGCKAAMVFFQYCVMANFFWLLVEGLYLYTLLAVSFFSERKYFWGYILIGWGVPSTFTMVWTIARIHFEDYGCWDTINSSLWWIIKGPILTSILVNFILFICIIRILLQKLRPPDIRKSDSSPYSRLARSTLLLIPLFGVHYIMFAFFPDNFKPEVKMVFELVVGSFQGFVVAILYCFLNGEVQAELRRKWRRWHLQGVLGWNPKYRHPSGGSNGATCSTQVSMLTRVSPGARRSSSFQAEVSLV

Y1 = Y1 (Homo sapiens, UniProt P25929); assay: Neuropeptide Y receptor Y1 binding; conditions: [^125I]peptide YY, SK-N-MC cells (endogenous), read-out: CR6086 Activity at 10µM
Chain of Y1 (P25929 whole entry): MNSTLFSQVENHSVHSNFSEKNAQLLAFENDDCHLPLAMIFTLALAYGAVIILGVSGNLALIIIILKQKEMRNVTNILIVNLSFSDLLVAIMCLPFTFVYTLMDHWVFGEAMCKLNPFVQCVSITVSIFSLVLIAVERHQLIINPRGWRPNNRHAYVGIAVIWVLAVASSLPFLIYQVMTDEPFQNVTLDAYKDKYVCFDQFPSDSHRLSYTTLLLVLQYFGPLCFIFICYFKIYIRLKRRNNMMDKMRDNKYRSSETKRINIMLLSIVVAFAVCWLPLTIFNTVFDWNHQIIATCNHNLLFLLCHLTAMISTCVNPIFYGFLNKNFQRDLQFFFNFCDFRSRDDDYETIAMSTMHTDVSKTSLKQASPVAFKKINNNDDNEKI

human EP4 receptor = biological target: T1, human EP4 receptor (Homo sapiens, UniProt P35408); assay: EP4 radioligand binding assay ([^3H]PGE2), human receptor; conditions: for Ki: read-out: Ki CR6086
T1 construct: expressed in transfected cells
T1 sequence (P35408 whole entry): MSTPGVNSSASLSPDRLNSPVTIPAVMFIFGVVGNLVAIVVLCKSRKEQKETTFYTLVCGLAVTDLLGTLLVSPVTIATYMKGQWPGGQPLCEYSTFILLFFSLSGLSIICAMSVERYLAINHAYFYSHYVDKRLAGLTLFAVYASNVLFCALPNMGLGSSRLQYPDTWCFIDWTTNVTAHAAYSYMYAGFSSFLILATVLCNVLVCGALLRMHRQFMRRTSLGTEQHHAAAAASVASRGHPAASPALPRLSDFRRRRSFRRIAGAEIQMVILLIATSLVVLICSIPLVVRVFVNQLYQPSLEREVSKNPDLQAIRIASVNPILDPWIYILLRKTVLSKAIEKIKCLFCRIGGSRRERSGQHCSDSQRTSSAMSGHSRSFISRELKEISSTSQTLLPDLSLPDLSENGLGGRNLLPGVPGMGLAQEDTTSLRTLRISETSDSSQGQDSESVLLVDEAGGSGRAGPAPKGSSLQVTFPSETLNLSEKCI
Excerpt: The complementary DNA (cDNA) clone of the human EP4 receptor (hEP4R; NM_000958.2) was obtained from Thermo Fisher Scientific (Ultimate ORF Clone Collection, clone ID IOH46525; Waltham, MA, USA). The coding sequence was subcloned in expression vector pcDNATM6.2/V5-DEST by using Invitrogen Gateway technology (Thermo Fisher Scientific). Human embryonic kidney cells 293 (HEK293) were obtained from the American Type Culture Collection (ATCC; Manassas, VA, USA) and transfected with expression vector for hEP4R according to the method described in the FuGENE 6 Transfection Reagent technical manual (Promega, Madison, WI, USA). The clones overexpressing the protein were selected for Blasticidin S HCl (Thermo Fisher Scientific) resistance. The selected clone was grown in DMEM containing 10% FBS and 10 μg/ml Blasticidin S HCl (selection medium) at 37 °C in a humidified atmosphere of 5% CO2 in air.
Membranes expressing the human EP4 receptor were prepared from stably transfected HEK293 cell line. Cells were grown adherent in DMEM with GlutaMAX-I (Thermo Fisher Scientific) containing 10% FBS and Blasticidin 10 μg/ml at 37 °C in a humidified atmosphere with 5% CO2. Membranes expressing the mouse or rat EP4 receptor were prepared from transiently transfected HEK293 cells. Cells were grown adherent in DMEM with GlutaMAX-I containing 10% FBS at 37 °C in a humidified atmosphere with 5% CO2. For the preparation of all cell membranes, culture medium was aspirated from 150-cm^2 flasks into which cells were seeded. Cell monolayers were then washed with 10 ml of hypotonic lysis buffer (Tris 5 mM + ethylenediaminetetraacetic acid [EDTA] 5 mM, pH 7.4), detached, and lysed with 10 ml + 10 ml of lysis buffer by mechanical scraping. Lysates were vortexed for 30 seconds and centrifuged at 40,000 × g for 22 minutes at 4 °C. Pellets were stored at −80 °C until use. Protein content of the cell membrane suspension was determined using bovine serum albumin (BSA) as a standard.
Experimental procedures were performed according to the method of Abramovitz et al.. [^3H]PGE2 (PerkinElmer, Waltham, MA, USA) binding assays for recombinant EP4 receptors were performed in 10 mM 2-(N-morpholino)ethanesulphonic acid-KOH buffer, pH 6, containing 10 mM MgCl2 and 1 mM CaCl2. Ten micrograms of protein from membrane fractions were incubated in a total volume of 0.1 ml with 1–1.5 nM [^3H]PGE2. To determine the total binding or non-specific binding, 1% dimethyl sulphoxide (DMSO) or 1 μM PGE2 was added to the reaction mixture. Incubation was carried out in 96-well multi-well plates for 90 minutes at room temperature prior to separation of the bound and free radioligand by rapid filtration on glass-fibred filters (UniFilter-96 GF/B; PerkinElmer) pre-soaked in 0.3% polyethylenimine. […] The residual [^3H]PGE2 binding was determined using a solid scintillation counter (TopCount; PerkinElmer) after at least 1 h of stabilisation. In saturation binding studies, isotherm-binding curves generated with six to eight different concentrations of [^3H]PGE2 (from 0.5 to 25 nM) were evaluated. […]
Specific binding to the receptors was defined as the difference between total binding and non-specific binding, as determined in the presence of an excess of unlabelled ligand. Binding isotherm curves were analysed to determine the equilibrium binding parameters, affinity (dissociation constant [Kd]) and maximal binding capacity of labelled ligand. Competition curves were analysed to assess the half-maximal inhibitory concentration (IC50). […]

5-HT2C = 5-HT2C (Homo sapiens, UniProt P28335); assay: Serotonin receptor 5-HT2C binding; conditions: [^3H]mesulergine, Human recombinant HEK-293 cells, read-out: CR6086 Activity at 10µM
Chain of 5-HT2C (P28335 33-458): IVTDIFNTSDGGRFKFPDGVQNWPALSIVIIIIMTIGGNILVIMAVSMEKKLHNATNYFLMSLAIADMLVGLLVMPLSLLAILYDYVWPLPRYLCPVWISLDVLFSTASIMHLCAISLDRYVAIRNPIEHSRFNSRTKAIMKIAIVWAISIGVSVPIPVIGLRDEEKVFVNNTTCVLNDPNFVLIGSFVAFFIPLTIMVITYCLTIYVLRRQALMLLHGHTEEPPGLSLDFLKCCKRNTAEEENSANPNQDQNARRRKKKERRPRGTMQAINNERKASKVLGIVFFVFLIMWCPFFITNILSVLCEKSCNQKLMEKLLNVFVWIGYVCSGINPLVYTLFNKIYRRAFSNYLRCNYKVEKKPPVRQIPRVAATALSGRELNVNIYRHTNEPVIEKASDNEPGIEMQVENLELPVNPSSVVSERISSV

AT2 = AT2 (Homo sapiens, UniProt P50052); assay: Angiotensin receptor AT2 binding; conditions: [^125I]CGP 42112A, Human recombinant HEK-293 cells, read-out: CR6086 Activity at 10µM
Chain of AT2 (P50052 whole entry): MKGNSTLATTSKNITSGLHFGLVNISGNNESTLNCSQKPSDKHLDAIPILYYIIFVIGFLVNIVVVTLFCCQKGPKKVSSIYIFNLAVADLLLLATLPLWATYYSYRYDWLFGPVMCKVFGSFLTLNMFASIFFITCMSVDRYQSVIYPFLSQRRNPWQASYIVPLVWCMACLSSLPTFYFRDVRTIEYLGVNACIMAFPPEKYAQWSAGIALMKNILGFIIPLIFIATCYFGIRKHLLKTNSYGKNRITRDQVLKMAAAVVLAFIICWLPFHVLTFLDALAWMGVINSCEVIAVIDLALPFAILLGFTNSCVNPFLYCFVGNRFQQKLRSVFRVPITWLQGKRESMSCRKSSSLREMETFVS

κ (KOP) = κ (KOP) (Homo sapiens, UniProt P41145); assay: Opioid receptor κ (KOP) binding; conditions: [^3H]U 69593, Human recombinant CHO cells, read-out: CR6086 Activity at 10µM
Chain of κ (KOP) (P41145 whole entry): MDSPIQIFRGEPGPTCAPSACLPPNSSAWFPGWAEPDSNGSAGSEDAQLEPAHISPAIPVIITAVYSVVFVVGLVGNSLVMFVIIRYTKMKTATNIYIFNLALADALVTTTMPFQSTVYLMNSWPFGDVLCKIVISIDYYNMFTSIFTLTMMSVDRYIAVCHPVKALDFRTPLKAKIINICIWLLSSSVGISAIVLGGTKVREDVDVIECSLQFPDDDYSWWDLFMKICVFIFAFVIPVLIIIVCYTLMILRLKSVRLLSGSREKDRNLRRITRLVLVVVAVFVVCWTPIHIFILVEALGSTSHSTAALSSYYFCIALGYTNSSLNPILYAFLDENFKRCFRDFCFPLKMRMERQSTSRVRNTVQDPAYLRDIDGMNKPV

[1] = equilibrium binding, CR6086 50 nM

O=C([O-])c1ccc(C2(NC(=O)[C@H]3CC4(CCN3Cc3ccc(C(F)(F)F)cc3)CC4)CC2)cc1.[Na+] [CR6086, Sodium (R)-4-(1-(6-(4-(trifluoromethyl)benzyl)-6-azaspiro[2.5]octane-5-carboxamido)cyclopropyl)benzoate]
CR6086 Activity at 10µM (SKCa channel): IN (IN = < 20% displacement or inhibition (all tables))
inhibition at 10 µM (5-HT2A): < 20%
inhibition at 10 µM (VPAC1 (VIP1)): < 20%
inhibition at 10 µM (Y1): < 20%
Ki (human EP4 receptor; [^3H]PGE2 displacement, HEK293 membranes, absence of BSA): 16.6 nM
Ki (human EP4 receptor; after addition of 0.5% BSA in the assay buffer): 15.5 nM
change in [^3H]PGE2 affinity in the presence of CR6086 (human EP4 receptor; [1]): fourfold decrease
change in maximal binding capacity of [^3H]PGE2 (human EP4 receptor; [1]): +20%
type of antagonism (human EP4 receptor; [1]): competitive antagonist
inhibition at 10 µM (5-HT2C): < 20%
inhibition at 10 µM (AT2): < 20%
inhibition at 10 µM (κ (KOP)): < 20%
